Drawing on patent US20240382600A1, “BIFUNCTIONAL DEGRADERS COMPRISING A TEAD BINDER” (Novartis AG, priority 2021, published 2024), this text covers IC50, DC50 and GI50 for seven molecules.

Usually pIC50 stands for the IC50 on a negative log10 scale, so that one unit is a factor of ten. A higher pIC50 goes with a low IC50. The GI50 is the concentration giving 50% growth inhibition. Low values mean greater sensitivity of the cells, high ones lower sensitivity of the cells.

The target in experiment [1] is Avi-humanTEAD4^217-434 / Cy5 labeled humanYAP^60-100 (Homo sapiens (Human), UniProt Q15561). Briefly: In-vitro biochemical TR-FRET assay (TEAD4/YAP). Conditions: 1 h at room temperature. Type of experiment: binding. In general terms: TR-FRET usually uses a lanthanide donor and a delayed reading to cut background.
Experiment [2] concerns the target TEAD1-GFP in HEK293A cells (Homo sapiens (Human), UniProt P28347). Briefly: TEAD1 protein abundance flow cytometry assay in HEK293A. Type of experiment: cell-based. To be noted: HEK293A TEAD1-GFP-CHYSEL-mCherry sensor cells, 24 h, GFP signal by flow cytometry. Here is the method:
Degradation of TEAD1 was measured in HEK293A cells (Invitrogen R70507) expressing TEAD1-GFP and mCherry from a stably integrated bicistronic TEAD1-GFP-CHYSEL-mCherry construct. Reduction of the GFP signal measured by flow cytometry served as readout for TEAD1 degradation after degrader treatment.
Stable HEK293A sensor cells were maintained in complete growth medium (DMEM high Glucose+10% FCS+1% L-Glutamine+1% NEAA+1% NaPyr.+4 μg/mL blasticidin) with passaging performed twice per week. On Day 0, stable HEK293A sensor cells were seeded at 5,000 cells/well in a 96-well microtiter plate in 100 μL complete medium. On Day 1, cells were treated in duplicate with 10-point 1:3 dilution series of compound using the HP D300 Digital Dispenser (Tecan). DMSO concentrations were normalized across the plate to 0.1%. On Day 2, after 24 h of incubation at 37° C., treatment media was discarded, cells rinsed with 100 μL/well PBS and then detached using 40 μL trypsin/well for 5 min. Trypsin was neutralized with 100 μL/well PBS+20% FCS).
Flow cytometry was performed on the samples using the CytoFlex S (Beckman Coulter). Cell identification was then performed using forward (FSC) vs. side scatter (SSC) plots. Single cell discrimination was performed using SSC-Width (SSC-W) vs. SSC-Height (SSCH) plots. Median GFP values for 2,500 single cells were used to determine TEAD1 levels. Median GFP values from HEK293A were used as a background signal and thus defining 0% TEAD1 signal. Median GFP values from DMSO treated HEK293A TEAD1-GFP CHYSEL-mCherry were used to define 100%
TEAD1 signal for subsequent DC50 curves (concentration at 50% TAED1 degradation). GFP and RFP were read in the channels called FITC and PE, respectively. Concentration response curves plotting relative reduction of the GFP signal (measured by flow cytometry) versus 10 compound concentrations (starting concentration 10 μM, 3 fold dilution steps) of the compounds allowed generation of DC50 values.
In general terms: A flow cytometer gives signals particle by particle.

The test system of experiment [3] is NCI-H2052 Tet-On shYAP_2371 pLenti6 MCAT_Luc cells. Briefly: Proliferation assay (resazurin/AlamarBlue), NCI-H2052. Type of experiment: cell-based. Conditions: Homo sapiens; NCI-H2052, 72 hours. On the technique in general: The colour change of resazurin is a common sign of viable cells or microbes.
The test system of another experiment is MKN-45/Ubc-luc cells. Briefly: Proliferation assay (resazurin/AlamarBlue), MKN-45. Conditions: Homo sapiens; MKN-45, 72 hours. In kind it is cell-based. The gist of the method:
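MKN-45 cells carrying constitutive Ubc-driven luciferase reporter, treated the day after seeding with eleven 2-fold dilutions (0.1% DMSO) for 72 h at 37 °C. Viability by resazurin, referenced to day-0 plate; GI50 from % growth (100 none, 0 stasis, −100 kill) and residual viability at top concentration.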

For experiment [4], the system named is YAP-dependent transcription in SF268-MCAT_Luc_dox-i-shYAPLevy (Clone 13) cells. Briefly: YAP reporter gene activity assay (MCAT-Luc), SF268. In kind it is cell-based. To be noted: Homo sapiens, SF-268; SF268 MCAT_Luc, 24 hrs.
Experiment [5] deals with MKN-45/Ubc-luc cells (unspecific inhibition of luciferase expression or activity). Briefly: Reporter gene assay specificity control (Ubc-Luc), MKN-45. Type of experiment: cell-based. To be noted: Homo sapiens; MKN-45/Ubc-luc specificity control, 24 hrs. The procedure, abridged: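 MKN-45 cells stably carrying a ubiquitin C promoter–firefly luciferase construct, treated the day after seeding with eleven 2-fold compound dilutions (0.1% DMSO final) for 24 hrs at 37° C. Luminescence read 5 min after Steady Glo addition; cell-free background subtracted, as a control for nonspecific luciferase inhibition.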

In experiment [6] the test system is SF268-MCAT_Luc_dox-i-shYAPLevy (Clone 13) cells. Briefly: Proliferation assay (resazurin/AlamarBlue), SF268. In kind it is cell-based. To be noted: Homo sapiens, SF-268; SF268, 72 hours.
Experiment [7] relates to YAP-dependent transcription in NCI-H2052 Tet-On shYAP_2371 pLenti6 MCAT_Luc cells. Briefly: YAP reporter gene activity assay (MCAT-Luc), NCI-H2052. In kind it is cell-based. Conditions: Homo sapiens, 24 hrs.

pIC50: −log10 of the molar value. Where only a bound is given, the exact number is not on record here.

Sequence of Avi-humanTEAD4^217-434 / Cy5 labeled humanYAP^60-100 (Q15561 217-434): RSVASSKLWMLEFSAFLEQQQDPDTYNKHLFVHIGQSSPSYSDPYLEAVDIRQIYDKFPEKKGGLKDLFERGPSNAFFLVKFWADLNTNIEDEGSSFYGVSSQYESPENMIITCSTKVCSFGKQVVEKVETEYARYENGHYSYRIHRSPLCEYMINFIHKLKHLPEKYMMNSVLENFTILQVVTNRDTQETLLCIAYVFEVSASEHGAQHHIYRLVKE
Sequence of TEAD1-GFP in HEK293A cells (P28347 whole entry): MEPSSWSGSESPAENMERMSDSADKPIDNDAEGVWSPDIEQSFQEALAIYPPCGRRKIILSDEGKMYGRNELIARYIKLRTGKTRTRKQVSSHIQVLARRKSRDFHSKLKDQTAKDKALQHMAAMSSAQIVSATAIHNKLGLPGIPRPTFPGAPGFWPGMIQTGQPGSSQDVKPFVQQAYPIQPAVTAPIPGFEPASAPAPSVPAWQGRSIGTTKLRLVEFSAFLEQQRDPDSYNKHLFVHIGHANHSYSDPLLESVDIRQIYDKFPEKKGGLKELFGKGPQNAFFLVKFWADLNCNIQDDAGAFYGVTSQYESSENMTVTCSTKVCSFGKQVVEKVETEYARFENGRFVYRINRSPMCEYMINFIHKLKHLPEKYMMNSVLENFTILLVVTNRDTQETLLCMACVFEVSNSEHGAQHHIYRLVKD

On to `COc1ccc(C(=O)N2CCC(C3CCN(C(=O)[C@H]4CC[C@H](NC[C@]5(c6ccccc6)Oc6cc(F)c(Cl)c(-c7c(C(N)=O)ccc(OC)c7F)c6[C@@H]5C)CC4)CC3)CC2)cc1N1CCC(=O)NC1=O` (atropisomer, axis not shown) [Example 10, 2-((2S,3S,4S)-5-chloro-2-((((1r,4S)-4-(1′-(3-(2,4-dioxotetrahydropyrimidin-1(2H)-yl)-4-methoxybenzoyl)-[4,4′-bipiperidine]-1-carbonyl)cyclohexyl)amino)methyl)-6-fluoro-3-methyl-2-phenyl-2,3-dihydrobenzofuran-4-yl)-3-fluoro-4-methoxybenzamide], for which the pIC50 in experiment [1] was 8.59; in experiment [4], 9.37; in experiment [5], < 4.70; in experiment [7], 8.00. In experiment [2], this molecule showed a DC50 of 1 nM. Besides, the 50% growth inhibitory concentration (GI50) in experiment [3] came out at 38 nM; with MKN-45/Ubc-luc cells, 12500 nM; in experiment [6] it was 30 nM.

`COc1ccc(C(=O)N2CCC(C3CCN(CCNC(=O)[C@H]4CC[C@H](NC[C@]5(c6ccccc6)Oc6cc(F)c(Cl)c(-c7c(C(N)=O)ccc(OC)c7F)c6[C@@H]5C)CC4)CC3)CC2)cc1N1CCC(=O)NC1=O` (atropisomer, axis not shown) [Example 11, 2-((2S,3S,4S)-5-chloro-2-((((1r,4S)-4-((2-(1′-(3-(2,4-dioxotetrahydropyrimidin-1(2H)-yl)-4-methoxybenzoyl)-[4,4′-bipiperidin]-1-yl)ethyl)carbamoyl)cyclohexyl)amino)methyl)-6-fluoro-3-methyl-2-phenyl-2,3-dihydrobenzofuran-4-yl)-3-fluoro-4-methoxybenzamide]: the pIC50 was > 9.00 in experiment [1], 8.85 in experiment [4], < 4.70 in experiment [5] and 7.04 in experiment [7]. The molecule also displayed a DC50 in experiment [2] of 11 nM. Further, the figures for the concentration for 50% growth inhibition (GI50) (in experiment [3]; in the experiment on MKN-45/Ubc-luc cells; in experiment [6]) were 280 nM, > 20000 nM and 51 nM, respectively.

In the case of `COc1ccc(C(N)=O)c(-c2c(Cl)c(F)cc3c2[C@H](C)[C@@](CN[C@H]2CC[C@H](C(=O)N4CCC(CN5CCN(C(=O)COc6ccc(C)c(N7CCC(=O)NC7=O)c6)CC5)CC4)CC2)(c2ccccc2)O3)c1F` (atropisomer, axis not shown) [Example 12, 2-((2S,3S,4S)-5-chloro-2-((((1r,4S)-4-(4-((4-(2-(3-(2,4-dioxotetrahydropyrimidin-1(2H)-yl)-4-methylphenoxy)acetyl)piperazin-1-yl)methyl)piperidine-1-carbonyl)cyclohexyl)amino)methyl)-6-fluoro-3-methyl-2-phenyl-2,3-dihydrobenzofuran-4-yl)-3-fluoro-4-methoxybenzamide], the pIC50 was 8.80 in experiment [1], 9.42 in experiment [4], < 5.70 in experiment [5] and 8.40 in experiment [7]. The same molecule returned a DC50 in experiment [2] of 1 nM. For the same molecule, the results for the GI50 (in experiment [3]; in the experiment on MKN-45/Ubc-luc cells; in experiment [6]) were 15 nM, > 2000 nM and 20 nM, respectively.

Consider `COc1ccc(C(N)=O)c(-c2c(Cl)c(F)cc3c2[C@H](C)[C@@](CN[C@H]2CC[C@H](C(=O)N4CCC(OC5CCN(C(=O)c6ccc(Cl)c(N7CCC(=O)NC7=O)c6)CC5)CC4)CC2)(c2ccccc2)O3)c1F` (atropisomer, axis not shown) [Example 13, 2-((2S,3S,4S)-5-chloro-2-((((1r,4S)-4-(4-((1-(4-chloro-3-(2,4-dioxotetrahydropyrimidin-1(2H)-yl)benzoyl)piperidin-4-yl)oxy)piperidine-1-carbonyl)cyclohexyl)amino)methyl)-6-fluoro-3-methyl-2-phenyl-2,3-dihydrobenzofuran-4-yl)-3-fluoro-4-methoxybenzamide], for which the negative-log IC50 (pIC50) in experiment [1] is 8.74; in experiment [4], 9.31; in experiment [5] it was < 5.70; in experiment [7], 8.35. Further, the DC50 in experiment [2] was determined as 0.5 nM. Further, the 50% growth inhibitory concentration (GI50) was 13 nM in experiment [3], > 2000 nM in the experiment on MKN-45/Ubc-luc cells and 23 nM in experiment [6].

In the case of `COc1ccc(C(N)=O)c(-c2c(Cl)c(F)cc3c2[C@H](C)[C@@](CN[C@H]2CC[C@H](C(=O)N4CCC(OC5CCN(C(=O)COc6ccc(N7CCC(=O)NC7=O)c(C)c6)CC5)CC4)CC2)(c2ccccc2)O3)c1F` (atropisomer, axis not shown) [Example 14, 2-((2S,3S,4S)-5-chloro-2-((((1r,4S)-4-(4-((1-(2-(4-(2,4-dioxotetrahydropyrimidin-1(2H)-yl)-3-methylphenoxy)acetyl)piperidin-4-yl)oxy)piperidine-1-carbonyl)cyclohexyl)amino)methyl)-6-fluoro-3-methyl-2-phenyl-2,3-dihydrobenzofuran-4-yl)-3-fluoro-4-methoxybenzamide], the negative logarithm of the IC50 (pIC50) was 8.85 in experiment [1], 9.20 in experiment [4], < 5.70 in experiment [5] and 8.51 in experiment [7]. In experiment [2], the DC50 is 3 nM. For the same molecule, the concentration for 50% growth inhibition (GI50) was 11 nM in experiment [3], > 2000 nM with MKN-45/Ubc-luc cells and 35 nM in experiment [6].

As to `COc1ccc(C(N)=O)c(-c2c(Cl)c(F)cc3c2[C@H](C)[C@@](CN[C@H]2CC[C@H](C(=O)N4CCC(CC5CCN(CCn6cccc(CN7CCC(=O)NC7=O)c6=O)CC5)CC4)CC2)(c2ccccc2)O3)c1F` (atropisomer, axis not shown) [Example 15, 2-((2S,3S,4S)-5-chloro-2-((((1r,4S)-4-(4-((1-(2-(3-((2,4-dioxotetrahydropyrimidin-1(2H)-yl)methyl)-2-oxopyridin-1(2H)-yl)ethyl)piperidin-4-yl)methyl)piperidine-1-carbonyl)cyclohexyl)amino)methyl)-6-fluoro-3-methyl-2-phenyl-2,3-dihydrobenzofuran-4-yl)-3-fluoro-4-methoxybenzamide], the pIC50 in experiment [1] was > 9.00; in experiment [4], 8.59; in experiment [5], < 5.70; in experiment [7], 7.77. In experiment [2], this molecule gave a DC50 of 3 nM. For the same molecule, the GI50 in experiment [3] came out at 31 nM; in the experiment with MKN-45/Ubc-luc cells, 1550 nM; in experiment [6] it was 85 nM.

Take `COc1ccc(C(N)=O)c(-c2c(Cl)c(F)cc3c2[C@H](C)[C@@](CN[C@H]2CC[C@H](C(=O)N4CCC(CC5CCN(C(=O)Cn6cccc(CN7CCC(=O)NC7=O)c6=O)CC5)CC4)CC2)(c2ccccc2)O3)c1F` (atropisomer, axis not shown) [Example 16, 2-((2S,3S,4S)-5-chloro-2-((((1r,4S)-4-(4-((1-(2-(3-((2,4-dioxotetrahydropyrimidin-1(2H)-yl)methyl)-2-oxopyridin-1(2H)-yl)acetyl)piperidin-4-yl)methyl)piperidine-1-carbonyl)cyclohexyl)amino)methyl)-6-fluoro-3-methyl-2-phenyl-2,3-dihydrobenzofuran-4-yl)-3-fluoro-4-methoxybenzamide]: the pIC50 in experiment [1] is 8.89; in experiment [4], 8.92; in experiment [5], < 5.70; in experiment [7], 7.85. The molecule also displayed a DC50 in experiment [2] of 6 nM. Besides, the GI50 in experiment [3] is 52 nM; in the experiment with MKN-45/Ubc-luc cells, > 2000 nM; in experiment [6], 64 nM.
